Measurements from patent US20080125477A1, “7-(ACRYLOYL) INDOLE COMPOSITIONS AND METHODS OF MAKING AND USING SAME” (DECODE GENETICS, EHF., priority 2006, published 2008).
≈ marks a conversion by molar mass, not a printed value.

Experiments:
[1] = aqueous solubility of micronized DTSI in surfactant/amine solutions; assay type: physicochemical; details: for solubility at 60 min: thermodynamic from solid, micronized DTSI
Procedure: The solubility of DTSI in aqueous PEG, cyclodextrins, glycerides and other solvent systems was evaluated. Excess amount of the DTSI was added to the aqueous compatible/complexation media, the suspension formed was sonicated for 60 minutes (and also heated up to 75° C. e.g. for cyclodextrins). The suspensions at room temperature were filtered and the amount of dissolved drug was determined by HPLC.

human platelets = assay: platelet aggregation in vitro, human platelets; assay type: cell-based; details: agonist Sulprostone (100 nM) and collagen (0.125 ug.mL), Serum % 100
Procedure: (§1) DTSI and related compounds were assayed for their effect on platelet aggregation in vitro. In experiments with human platelets, whole blood was extracted from overnight-fasted human donors. Each experiment was performed with blood from a single individual. In experiments with rodent platelets, whole blood was gathered from the heart of female mice or male rats under isofluran (Abbott) anaesthesia. Blood was pooled from two or ten individual rodents for each experiment in the case of rat and mouse experiments, respectively. In all cases, blood was collected into 3.8% sodium citrate tubes (Greiner Bio-one). Platelet-rich plasma (PRP) was obtained by centrifugation at 100×g for 15 min at 25° C. for humans, at 150×g for rats, or at 80×g for 10 min for mice. Platelet-poor plasma was obtained by centrifugation of the remaining blood at 2,400×g for 10 min at 25° C. After counting in an Autocounter (Model 920 EO, Swelab) platelets were diluted when necessary to the desired stock concentrations (200,000-300,000 platelets/μl) using 0.9% NaCl isotonic solution (Braun).
(§2) Platelet aggregation was determined by light absorbance using a platelet aggregometer with constant magnetic stirring (Model 490, Chronolog Cop., Havertown, Pa., USA), using a volume of 500 μl per cuvette. […] IC50 values were calculated using GraphPad Prism 3.02 for Windows (GraphPad Software, San Diego, Calif. USA). […]

[2] = system: pulmonary thromboembolism by arachidonic acid; assay: pulmonary thromboembolism assay (platelet aggregation in vivo); details: 100 mg/kg orally, 30 min before arachidonic acid 30 mg/kg i.v.; survival one hour after challenge
Procedure: DTSI was also assayed for its effects on platelet aggregation in vivo. […] For the pulmonary thromboembolism assay, conscious female C57BL/6 mice were dosed orally with the test compounds and 30 min later thromboembolism was induced by injection of arachidonic acid into a tail vein at a dose of 30 mg per kg body weight. Survival was evaluated one hour after the challenge with arachidonic acid, as mice that survive for that length of time usually recovered fully. The arachidonic acid injection was given via a lateral tail vein in a mouse that had been warmed briefly under a heat lamp (dilation of the tail veins using heat facilitates placing the injection). An insulin syringe, 0. 5 mL (from Becton Dickinson) was used for dosing. The dose volume given of both the test compound and the arachidonic acid was adjusted to the weight of the mouse (the dose volume p.o. for test compounds and i.v. for arachidonic acid solution was 10 μL and 5 μL per gram body weight, respectively).

[3] = target: T1, prostanoid hEP3 receptors (Homo sapiens, UniProt P43115); assay: binding on prostanoid hEP3 receptors
T1 sequence (P43115 1-390): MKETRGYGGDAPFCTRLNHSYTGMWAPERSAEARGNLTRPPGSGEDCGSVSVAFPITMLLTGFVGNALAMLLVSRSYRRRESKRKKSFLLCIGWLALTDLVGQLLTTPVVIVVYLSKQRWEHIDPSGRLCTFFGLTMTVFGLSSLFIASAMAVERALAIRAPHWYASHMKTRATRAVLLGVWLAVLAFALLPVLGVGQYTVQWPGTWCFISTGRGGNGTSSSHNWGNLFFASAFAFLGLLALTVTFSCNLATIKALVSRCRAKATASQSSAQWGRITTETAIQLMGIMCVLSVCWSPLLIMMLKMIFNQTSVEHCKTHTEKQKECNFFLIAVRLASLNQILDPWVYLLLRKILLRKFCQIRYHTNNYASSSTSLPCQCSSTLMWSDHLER
Procedure: DTSI and related compounds were assayed for binding on prostanoid hEP3 receptors according to the method of Abramovitz et al [Bioch. Biophys.

rodent platelets (rat) = assay: platelet aggregation in vitro, rat platelets; assay type: cell-based; details: agonist Sulprostone (100 nM) and collagen (2.0 ug.mL), Serum % 20
Procedure: as §1, §2

Cc1cn(Cc2ccc(Cl)cc2Cl)c2c(/C=C/C(=O)NS(=O)(=O)c3cc(Cl)c(Cl)s3)cc(F)cc12 [DTSI, 4,5-dichlorothiophene-2-sulfonic acid [(E)-3-[1-(2,4-dichlorophenylmethyl)-5-fluoro-3-methyl-1H-indol-7-yl]-acryloyl]amide]
aqueous solubility (in words) [1]: poor
solubility at 60 min ([1]; aqueous solution of 5% Cremophor RH40, aqueous with cosolvent or surfactant or cyclodextrin, 5% Cremophor RH40): 170 µg/mL (≈ 0.287 mM)
solubility at 60 min ([1]; aqueous solution of 5% Cremophor RH40 and 1% diethanolamine, aqueous with cosolvent or surfactant or cyclodextrin, 5% Cremophor RH40 and 1% diethanolamine): 22700 µg/mL (≈ 38.3 mM)
solubility at 60 min ([1]; aqueous solution of 5% Cremophor RH40 and 1% ethanolamine, aqueous with cosolvent or surfactant or cyclodextrin, 5% Cremophor RH40 and 1% ethanolamine): 8900 µg/mL (≈ 15 mM)
solubility at 60 min ([1]; aqueous solution of 5% Cremophor RH40 and 1% triethanolamine, aqueous with cosolvent or surfactant or cyclodextrin, 5% Cremophor RH40 and 1% triethanolamine): 8300 µg/mL (≈ 14 mM)
solubility at 60 min ([1]; aqueous solution of 5% Cremophor RH40 and 1% tromethamine, aqueous with cosolvent or surfactant or cyclodextrin, 5% Cremophor RH40 and 1% tromethamine): 8700 µg/mL (≈ 14.7 mM)
solubility at 60 min ([1]; aqueous solution of 5% Vitamin E TPGS and 1% choline, aqueous with cosolvent or surfactant or cyclodextrin, 5% Vitamin E TPGS and 1% choline): 46600 µg/mL (≈ 78.7 mM)
solubility at 60 min ([1]; aqueous solution of 5% Vitamin E TPGS and 1% diethanolamine, aqueous with cosolvent or surfactant or cyclodextrin, 5% Vitamin E TPGS and 1% diethanolamine): 20400 µg/mL (≈ 34.4 mM)
solubility at 60 min ([1]; aqueous solution of 5% Vitamin E TPGS and 1% ethanolamine, aqueous with cosolvent or surfactant or cyclodextrin, 5% Vitamin E TPGS and 1% ethanolamine): 19200 µg/mL (≈ 32.4 mM)
solubility at 60 min ([1]; aqueous solution of 5% Vitamin E TPGS and 1% triethanolamine, aqueous with cosolvent or surfactant or cyclodextrin, 5% Vitamin E TPGS and 1% triethanolamine): 9200 µg/mL (≈ 15.5 mM)
solubility at 60 min ([1]; aqueous solution of 5% Vitamin E TPGS and 1% tromethamine, aqueous with cosolvent or surfactant or cyclodextrin, 5% Vitamin E TPGS and 1% tromethamine): 8500 µg/mL (≈ 14.4 mM)
solubility at 60 min ([1]; aqueous solution of 5% Vitamin E TPGS and 5% diethanolamine, aqueous with cosolvent or surfactant or cyclodextrin, 5% Vitamin E TPGS and 5% diethanolamine): 58500 µg/mL (≈ 98.8 mM)
solubility at 60 min ([1]; aqueous solution of 5% Vitamin E TPGS, aqueous with cosolvent or surfactant or cyclodextrin, 5% Vitamin E TPGS): 100 µg/mL (≈ 0.169 mM)
solubility at 60 min ([1]; aqueous with cosolvent or surfactant or cyclodextrin, 5% Vitamin E TPGS and 0.5% diethanolamine): 15600 µg/mL (≈ 26.3 mM)
IC50 (human platelets): 218 nM
Survival rate [2]: 68%
EP3 receptor antagonism (in words) [3]: potent, selective EP3 receptor antagonist
IC50 (rodent platelets (rat)): 83 nM
